Measured values taken from the SangsterLogP compilation.
Values belong to the compound of their own block, whether it stands above or below them. *1 amine or outer side, *2 acyl side, *3 side chain or, on linkers, in order; H or OH if unused. Positions of bridges follow the written chain, without caps; N, C: chain ends. Where a SMILES comes first, the peptide text is derived from it. Residues, ends and D or L forms follow the SMILES beside them. [ ]: non-standard residue; d: D form. The star is where a group is joined. X1 = CC(C)C[C@H](N[*:1])[C@@H](O)C[C@H](C(=O)[*:2])C(C)C; NMeH = CN[C@@H](Cc1c[nH]cn1)C(=O)O; NHCH2(2-pyridyl) = c1ccc(CN*)nc1; Boc = CC(C)(C)OC(=O)*

Assays:
[1] = not given; remark: listed apart in the source
[2] = not given; remark: listed apart in the source
[3] = not given; remark: listed apart in the source
[4] = not given; remark: listed apart in the source
[5] = not given; remark: listed apart in the source
[6] = not given; remark: listed apart in the source
[7] = method code AS, from DOI: 10.1081/jlc-120022394
[8] = not given; remark: listed apart in the source
[9] = method code SF, from Moerlein, M.; Dischino, D.; Raymond, N.; Weitl, L.; Welch, J. (1982). Factors affecting the cerebral uptake of gallium complexes. J Labelled Comp Radiopharm, 19(11-12)1421-1422.; conditions: pH 7.0
[10] = method code SF-RC, from DOI: 10.1002/jps.2600730807, PMID: 6491907
[11] = not given; remark: listed apart in the source
[12] = not given; remark: listed apart in the source
[13] = not given; remark: listed apart in the source
[14] = method code SF-AS, from DOI: 10.1021/jm0401006, PMID: 15481980; conditions: pH 7.4

logP: 1.24
Structure (SMILES): CO[C@H]1C=CO[C@@]2(C)Oc3c(C)c(O)c4c(c3C2=O)C(=O)/C(=C/NN2CCN(C3CCCC3)CC2)C(=C4O)NC(=O)/C(C)=C\C=C/[C@H](C)[C@H](O)[C@@H](C)[C@@H](O)[C@H](C)[C@H](OC(C)=O)[C@H]1C

logP [1]: 4.2
Structure (SMILES): CC[C@H](C)[C@H](NC(=O)[C@@H](C[C@H](O)[C@H](CC(C)C)NC(=O)[C@H](Cc1cnc[nH]1)N(C)C(=O)[C@H](Cc1ccccc1)NC(=O)[C@@H]1CCCN1C(=O)OC(C)(C)C)C(C)C)C(=O)NCc1ccccn1 (Boc-PF[NMeH][X1]I-{NHCH2(2-pyridyl)})

logP [2]: 1.88
Structure (SMILES): Cc1ccccc1Nc1nc2ccc(C(=O)NC(CCCCNC(=O)C=Cc3cccnc3)C(=O)NC(CCCC(=O)O)C(=O)NC3(C(N)=O)CCCCC3)cc2[nH]1 (stereo not given)

logP [3]: 5.59
Structure (SMILES): COc1cc(CN2C(=O)N(Cc3cccc(C(=O)Nc4cnc(C)cn4)c3)C(Cc3ccccc3)C(O)C(O)C2Cc2ccccc2)cc(OC)c1 (stereo not given)

logP [4]: 2.8
Structure (SMILES): CCn1c(=O)c2c(nc(C=Cc3ccc(C(=O)OCCOCCOCCOCCOCCOCCOCCOCCOCCOC)c(OC)c3)n2C)n(CC)c1=O

logP [5]: 3.08
Structure (SMILES): CCCC(=O)O[C@H]1[C@H](C)O[C@@H](O[C@H]2[C@H](N(C)C)[C@@H](O)[C@H](O[C@H]3[C@@H](CC=O)C[C@@H](C)[C@@H](O)/C=C/C=C/C[C@@H](C)OC(=O)C[C@@H](O)[C@@H]3OC)O[C@@H]2C)C[C@@]1(C)OC(=O)CC

logP [6]: -1.62
Structure (SMILES): CC[C@H](C)[C@@H]1NC(=O)[C@H](Cc2ccc(O)cc2)NC(=O)[C@@H](N)CSSC[C@@H](C(=O)N2CCC[C@H]2C(=O)N[C@@H](CCCN=C(N)N)C(=O)NCC(N)=O)NC(=O)[C@H](CC(N)=O)NC(=O)[C@H](CCC(N)=O)NC1=O (H-CYIQNCPRG-NH2; disulfide 1-6)

logP [7]: 2.65
Structure (SMILES): CCOC(=O)C(=Cc1ccc(Cl)cc1)NC=O

logP [8]: 3.3
Structure (SMILES): C=CC[C@@H]1/C=C(\C)C[C@H](C)C[C@H](OC)[C@H]2O[C@@](O)(C(=O)C(=O)N3CCCC[C@H]3C(=O)O[C@H](/C(C)=C/[C@@H]3CC[C@@H](O)[C@H](OC)C3)[C@H](C)[C@@H](O)CC1=O)[C@H](C)C[C@@H]2OC

logD [9]: 0.51
Structure (SMILES): CCCCCCCCN(CCCCN(CCCN(CCCCCCCC)C(=O)c1cccc(O)c1O)C(=O)c1cccc(O)c1O)C(=O)c1cccc(O)c1O

Structure (SMILES): CC1OC(OC2C(O)CC(OC3C(O)CC(OC4CCC5(C)C(CCC6C5CC(O)C5(C)C(C7COC(=O)C7)CCC65O)C4)OC3C)OC2C)CC(O)C1O (stereo not given)
logP [10]: 1.25

logP [11]: 7.62
Structure (SMILES): COC(=O)[C@H](Cc1ccccc1)NC(=O)[C@H](Cc1ccccc1)NC(=O)[C@@H](NC(=O)[C@H](CC(C)C)NC(=O)[C@H](CCCCNC(=O)OCc1ccccc1)NC(=O)OC(C)(C)C)C(C)C

logP [12]: 6.37
Structure (SMILES): CCC(C(=O)OCc1ccc(COC(=O)C(CC)C(COC(=O)c2ccccc2)Cc2cncn2C)cc1)C(COC(=O)c1ccccc1)Cc1cncn1C (stereo not given)

logP [13]: -0.4
Structure (SMILES): COc1ccc(C2(O)OC(=O)C(c3ccc4c(c3)OCO4)=C2Cc2cc(OC)c(OC)c(OCCOCCOCCOCCOCc3cn(C4OC(CO)C(O)C(O)C4F)nn3)c2)cc1 (stereo not given)

logD [14]: 1.67
Structure (SMILES): CCOC(=O)c1cnc2c(c(C)nn2C)c1Nc1ccc(OC(C)=O)cc1
